# According to US10596092B2, “Deodorant composition and a method for preparing thereof” (priority 2017, dated 2020):
# Assay: Neutralization of odoriferous acid by GC-FID
# Format: physicochemical
# Method: Hexamine, which is weakly basic in nature, was incubated with two commonly known odoriferous acids, i.e., 3-hydroxy-3-methyl-hexanoic acid (HMHA) and hexanoic acid, and the potential neutralization effect was studied by using a Gas Chromatograph with a Flame Ionization Detector (GC-FID). The chromatograms showing the neutralization of 3-hydroxy-3-methyl-hexanoic acid (HMHA) by sodium hydroxide and hexamine; and the neutralization of hexanoic acid by hexamine are shown in FIGS. 1 and 2, respectively.
structure (smiles),measurement,setting,value
C1N2CN3CN1CN(C2)C3 [hexamine],neutralization of odoriferous acid,FIG. 1,capable of neutralizing the tested odoriferous acids
same,neutralization of odoriferous acid,FIG. 2,capable of neutralizing the tested odoriferous acids
